Reference: publication PMC9077470 (RSC Advances, 2018)
≈ marks a conversion by molar mass, not a printed value. Entries after “also recorded” stand apart in the source; their conditions may differ.

Experiments:
[1] = system: TNBS-induced experimental colitis; assay: TNBS-induced colitis: body weight, survival rates, overall effect; assay type: in vivo, mice; conditions: for body weight of mice / therapeutic effects on the TNBS-induced UC (overall): TNBS colitis mice; for body weight of mice: once daily 5 days, equivalent to 100 mg kg^−1 5-ASA; for therapeutic effects on the TNBS-induced UC (overall): Ols-DB as enema, others i.g.; for ameliorative effects on TNBS-induced colitis (overall), compared with positive control: vs positive control, oral administration
Method: Colitis was induced according to the previous study.[18,19] Briefly, after 12 h of fasting, mice were anesthetized with intraperitoneal pentobarbital sodium (35 mg kg^-1) before the induction of colitis. 0.1 mL of 50% (v/v) ethanol contained 2.5% (v/v) TNBS was instilled into the colon 3.5-4 cm from the anus by a gavage needle. The mice were kept in a head-down position for 30 s to prevent leakage of the intracolonic instillation. Mice in the control group received normal saline instead of TNBS solution, a physical mixture of 5-ASA and sodium butyrate was used as the positive control. […] The treatments were given once daily for 5 continuous days starting 24 hours after the induction of colitis. After the induction of colitis, the body weight of each mice was recorded daily, and the curves of weight changes for each group were drawn to evaluate the TNBS-induced colitis. Meanwhile, the death of mice in each group was recorded daily and the final survival rates of mice were calculated.

[2] = Aqueous solubility (equilibrium, distilled water); assay type: physicochemical; conditions: 25 °C, thermodynamic from solid, 25 ± 2 °C, means ± SD, n = 3, read-out: S (aqueous solubility)
Method: The mixtures were placed in an ultrasonic water bath for 10 min and then shaken for 24 h to establish a saturation equilibrium. Upon filtration, the filtrate was diluted with an appropriate amount of water and the mixture was analyzed by HPLC, the concentration of each compound in its saturated solution was calculated.

[3] = system: TNBS-induced experimental colitis; assay: TNBS-induced colitis: colon index and colonic damage score (CDS); assay type: in vivo, mice; conditions: for colon index, compared with positive control: vs positive control (5-ASDB p < 0.05, Ols-DBP p < 0.01); for CDS, compared with positive control: vs positive control, p < 0.05
Method: Colitis was induced according to the previous study.[18,19] Briefly, after 12 h of fasting, mice were anesthetized with intraperitoneal pentobarbital sodium (35 mg kg^-1) before the induction of colitis. 0.1 mL of 50% (v/v) ethanol contained 2.5% (v/v) TNBS was instilled into the colon 3.5-4 cm from the anus by a gavage needle. The mice were kept in a head-down position for 30 s to prevent leakage of the intracolonic instillation. Mice in the control group received normal saline instead of TNBS solution, a physical mixture of 5-ASA and sodium butyrate was used as the positive control. […] The treatments were given once daily for 5 continuous days starting 24 hours after the induction of colitis. At the end of the experiment, all mice were sacrificed and their entire colons were excised, opened longitudinally and washed carefully with normal saline. After dried with filter papers, colons were weighted and the length of colons was measured and recorded. The colon index was calculated as follows:Colon index (g dm^-1) = weight of colon/length of colon The colonic damage score (CDS) of mice in each group was evaluated according to the following criteria: 0, no ulcer and colitis; 1, no ulcer, local congestion; 2, ulcers, no local congestion; 3, ulcer and colitis at only one site; 4, ulcer and colitis at more than one sites; 5, over 2 cm of ulcer surface.[24]

CCCC(=O)OCC(COC(=O)CCC)OC(=O)c1cc(N)ccc1O [5-ASDB, 2-(1,3-dibutyroxypropyl)-5-aminosalicylate]
body weight of mice [1]: slight weight loss at first and gained gradually from the 2nd day
therapeutic effects on the TNBS-induced UC (overall) [1]: certain therapeutic effects
ameliorative effects on TNBS-induced colitis (overall), compared with positive control [1]: significantly greater than the positive control
solubility at 24 h [2]: 80 ± 20 mg/mL (≈ 218 mM)
colon index, compared with positive control [3]: significantly better than the positive control
CDS, compared with positive control [3]: significantly greater than the positive control

CCCC(=O)OCC(COC(=O)CCC)OC(=O)c1cc(N=Nc2ccc(O)c(C(=O)OC(COC(=O)CCC)COC(=O)CCC)c2)ccc1O [Ols-DBP]
body weight of mice [1]: slight weight loss at first and gained gradually from the 2nd day
therapeutic effects on the TNBS-induced UC (overall) [1]: certain therapeutic effects
ameliorative effects on TNBS-induced colitis (overall), compared with positive control [1]: significantly greater than the positive control
solubility at 24 h [2]: 190 ± 40 mg/mL (≈ 260 mM)
colon index, compared with positive control [3]: significantly better than the positive control
CDS, compared with positive control [3]: significantly greater than the positive control

CCCC(=O)Oc1ccc(N=Nc2ccc(OC(=O)CCC)c(C(=O)O)c2)cc1C(=O)O [Ols-DB, 3,3′-azobis(6-hydroxybenzoicacid)dibutyrate]
body weight of mice [1]: slight weight loss at first and gained gradually from the 2nd day
therapeutic effects on the TNBS-induced UC (overall) [1]: just as effective as 5-ASDB and Ols-DBP; also recorded: certain therapeutic effects
solubility at 24 h [2]: 270 ± 30 mg/mL (≈ 610 mM)
CDS, compared with positive control [3]: significantly greater than the positive control
